For 17 compounds, IC50 results are on record in patent US10450316B2, “Certain protein kinase inhibitor” (Chongqing Fochon Pharmaceutical Co., Ltd., priority 2015, dated 2019).

For orientation: IC50 means the concentration at which inhibition is half-maximal.

The subject of this assay is BE(2)-C cell. Nature of the assay: Cell proliferation assay (MTS) in BE(2)-C cells. The conditions noted are these: Homo sapiens, inhibition of BE(2)-C cell proliferation, 48 h. The assay is classed as cell-based. Here is the method: MTS testing kit was purchased from Promega. The DMEM, Fetal bovine serum and Penicillin-Streptomycin were purchased from Gibco. Dimethyl sulfoxide (DMSO) was purchased from Sigma.
To investigate whether a compound is able to inhibit the activity of CDK4/6 in cells, mechanism-based assays using BE(2)-C cell (ATCC® number:CRL-2268) were developed. In the assay, inhibition of CDK4/6 was detected by the inhibition of BE(2)-C cell cells proliferation. BE(2)-C cell cells were cultured in culture flasks to 40-80% confluence in DMEM plus 10% fetal bovine serum. Cells were collected and plated onto 96-well plates at cell density of 3000 cells/well. Plates were incubated overnight at 37° C., with 5% CO2 to adhere. Compounds were added to the plates, the final compound concentrations were 10000, 3333, 1111, […], 123.5, 41.2, 13.7, 4.6 and 1.5 nM. Place plates at 37° C., with 5% CO2 for 48 h. After removing the medium, 20 μl MTS/100 μl medium mixture solution were added to each well and incubate the plates for exactly 2 hours. The reaction was terminated by adding 25 μl 10% SDS per well. Measure absorbance at 490 nm and 650 nm (reference wavelength). IC50 was calculated using GraphPad Prism 5.0.
Select compounds prepared as described above were assayed according to the biological procedures described herein. “++++” stands for IC50 value below about 10 nM. “+++” stands for IC50 value between greater than about 10 nM to about 100 nM. “++” stands for IC50 value between greater than about 100 nM to about […]. “+” stands for IC50 value greater than 1 μM.

`CN1C2CCC1CN(Cc1ccc(Nc3ncc(F)c(-c4cc(F)c5nc6n(c5c4)[C@H](C(F)(F)F)CC6)n3)nc1)C2` [Example 80, 5-fluoro-4-((S)-5-fluoro-1-(trifluoromethyl)-2,3-dihydro-1H-benzo[d]pyrrolo[1,2-a]imidazol-7-yl)-N-(5-((8-methyl-3,8-diazabicyclo[3.2.1]octan-3-yl)methyl)pyridin-2-yl)pyrimidin-2-amine] gave a half-maximal inhibitory concentration (IC50) of 10 to 100 nM.

Compound `CN1CC2(C1)CN(Cc1ccc(Nc3ncc(F)c(-c4cc(F)c5nc6n(c5c4)[C@H](C(F)(F)F)CC6)n3)nc1)C2` [Example 68, (S)-5-fluoro-4-(5-fluoro-1-(trifluoromethyl)-2,3-dihydro-1H-benzo[d]pyrrolo[1,2-a]imidazol-7-yl)-N-(5-((6-methyl-2,6-diazaspiro[3.3]heptan-2-yl)methyl)pyridin-2-yl)pyrimidin-2-amine] yielded an IC50 of 10 to 100 nM.

Take `CCN1CCN(Cc2ccc(Nc3ncc(F)c(-c4cc(F)c5nc6n(c5c4)[C@@H](COC)CC6)n3)nc2)CC1` [Example 160, (R)-N-(5-((4-ethylpiperazin-1-yl)methyl)pyridin-2-yl)-5-fluoro-4-(5-fluoro-1-(methoxymethyl)-2,3-dihydro-1H-benzo[d]pyrrolo[1,2-a]imidazol-7-yl)pyrimidin-2-amine]: the IC50 was > 100 nM.

Regarding `CCN1CC2CN(Cc3ccc(Nc4ncc(F)c(-c5cc(F)c6nc7n(c6c5)[C@H](C(F)(F)F)CC7)n4)nc3)CC2C1` (stereo partly drawn) [Example 75, N-(5-((5-ethylhexahydropyrrolo[3,4-c]pyrrol-2(1H)-yl)methyl)pyridin-2-yl)-5-fluoro-4-((S)-5-fluoro-1-(trifluoromethyl)-2,3-dihydro-1H-benzo[d]pyrrolo[1,2-a]imidazol-7-yl)pyrimidin-2-amine], the IC50 was 10 to 100 nM.

`CN1CC2(CCN(Cc3ccc(Nc4ncc(F)c(-c5cc(F)c6nc7n(c6c5)C(C)(C)CC7)n4)nc3)CC2)C1` [Example 115, 5-fluoro-4-(5-fluoro-1,1-dimethyl-2,3-dihydro-1H-benzo[d]pyrrolo[1,2-a]imidazol-7-yl)-N-(5-((2-methyl-2,7-diazaspiro[3.5]nonan-7-yl)methyl)pyridin-2-yl)pyrimidin-2-amine] registered an IC50 of 10 to 100 nM.

Compound `CCN1CCN(Cc2ccc(Nc3ncc(F)c(-c4cc(F)c5nc6n(c5c4)[C@H](C(F)(F)F)CC6)n3)nc2)CC1` [Example 18, (S)—N-(5-((4-ethylpiperazin-1-yl)methyl)pyridin-2-yl)-5-fluoro-4-(5-fluoro-1-(trifluoromethyl)-2,3-dihydro-1H-benzo[d]pyrrolo[1,2-a]imidazol-7-yl)pyrimidin-2-amine] showed a concentration for half-maximal inhibition (IC50) of 10 to 100 nM.

`C[C@@H]1CCc2nc3c(F)cc(-c4nc(Nc5ccc(CN6CC7CNCC7C6)cn5)ncc4F)cc3n21` (stereo partly drawn) [Example 98, 5-fluoro-4-((R)-5-fluoro-1-methyl-2,3-dihydro-1H-benzo[d]pyrrolo[1,2-a]imidazol-7-yl)-N-(5-((hexahydropyrrolo[3,4-c]pyrrol-2(1H)-yl)methyl)pyridin-2-yl)pyrimidin-2-amine]: the IC50 was > 100 nM.

With `CCN1CCC2(CC1)CN(Cc1ccc(Nc3ncc(F)c(-c4cc(F)c5nc6n(c5c4)C(C)(C)CC6)n3)nc1)C2` [Example 113, N-(5-((7-ethyl-2,7-diazaspiro[3.5]nonan-2-yl)methyl)pyridin-2-yl)-5-fluoro-4-(5-fluoro-1,1-dimethyl-2,3-dihydro-1H-benzo[d]pyrrolo[1,2-a]imidazol-7-yl)pyrimidin-2-amine], the IC50 is < 10 nM.

With `CCN1CC2(C1)CN(Cc1ccc(Nc3ncc(F)c(-c4cc(F)c5nc6n(c5c4)C(C)(C)CC6)n3)nc1)C2` [Example 119, N-(5-((6-ethyl-2,6-diazaspiro[3.3]heptan-2-yl)methyl)pyridin-2-yl)-5-fluoro-4-(5-fluoro-1,1-dimethyl-2,3-dihydro-1H-benzo[d]pyrrolo[1,2-a]imidazol-7-yl)pyrimidin-2-amine], the concentration for half-maximal inhibition (IC50) is 10 to 100 nM.

In turn, `CCN1CC2CCC(C1)N2Cc1ccc(Nc2ncc(F)c(-c3cc(F)c4nc5n(c4c3)[C@H](C(F)F)CC5)n2)nc1` [Example 56, 4-((S)-1-(difluoromethyl)-5-fluoro-2,3-dihydro-1H-benzo[d]pyrrolo[1,2-a]imidazol-7-yl)-N-(5-((3-ethyl-3,8-diazabicyclo[3.2.1]octan-8-yl)methyl)pyridin-2-yl)-5-fluoropyrimidin-2-amine] showed a half-inhibitory concentration (IC50) of 10 to 100 nM.

Turning to `Fc1cnc(Nc2ccc(CN3CCN4CCC[C@@H]4C3)cn2)nc1-c1cc(F)c2nc3n(c2c1)C1(CC3)CC1` [Example 145, (R)-5-fluoro-4-(5-fluoro-2,3-dihydrospiro[benzo [d]pyrrolo[1,2-a]imidazole-1,1′-cyclopropan]-7-yl)-N-(5-((hexahydropyrrolo[1,2-a]pyrazin-2(1H)-yl)methyl)pyridin-2-yl)pyrimidin-2-amine], the half-inhibitory concentration (IC50) lay in the range of 10 to 100 nM.

On to `CC1(C)CCc2nc3c(F)cc(-c4nc(Nc5ccc(CN6C7CCC6CNC7)cn5)ncc4F)cc3n21` [Example 126, N-(5-((3,8-diazabicyclo[3.2.1]octan-8-yl)methyl)pyridin-2-yl)-5-fluoro-4-(5-fluoro-1,1-dimethyl-2,3-dihydro-1H-benzo[d]pyrrolo[1,2-a]imidazol-7-yl)pyrimidin-2-amine], for which the IC50 lay in the range of 10 to 100 nM.

Consider `CCN1CCN(Cc2ccc(Nc3ncc(F)c(-c4cc(F)c5nc6n(c5c4)C4(CC6)CC4)n3)nc2)CC1` [Example 15, N-(5-((4-ethylpiperazin-1-yl)methyl)pyridin-2-yl)-5-fluoro-4-(5-fluoro-2,3-dihydrospiro[benzo[d]pyrrolo[1,2-a]imidazole-1,1′-cyclopropan]-7-yl)pyrimidin-2-amine], for which the half-maximal inhibitory concentration (IC50) is > 100 nM.

For `FC[C@@H]1CCc2nc3c(F)cc(-c4nc(Nc5ccc(CN6CC7(CCNCC7)C6)cn5)ncc4F)cc3n21` [Example 20, (S)-N-(5-((2,7-diazaspiro[3.5]nonan-2-yl)methyl)pyridin-2-yl)-5-fluoro-4-(5-fluoro-1-(fluoro-methyl)-2,3-dihydro-1H-benzo[d]pyrrolo[1,2-a]imidazol-7-yl)pyrimidin-2-amine], the IC50 is > 1000 nM.

Regarding `OC[C@@H]1CCc2nc3c(F)cc(-c4nc(Nc5ccc(CN6CCNCC6)cn5)ncc4F)cc3n21` [Example 1, (S)-(5-fluoro-7-(5-fluoro-2-((5-(piperazin-1-ylmethyl)pyridin-2-yl)amino)pyrimidin-4-yl)-2,3-dihydro-1H-benzo[d]pyrrolo[1,2-a]imidazol-1-yl)methanol], the IC50 is > 1000 nM.

Consider `CC1CCc2nc3c(F)cc(-c4nc(Nc5ccc(CN6CCNCC6)cn5)ncc4F)cc3n21` (stereo in doubt) [Example 155, (R)-5-fluoro-4-(5-fluoro-1-methyl-2,3-dihydro-1H-benzo[d]pyrrolo[1,2-a]imidazol-7-yl)-N-(5-(piperazin-1-ylmethyl)pyridin-2-yl)pyrimidin-2-amine], for which the IC50 is > 100 nM.

`C[C@@H]1CCc2nc3c(F)cc(-c4nc(Nc5ccc(CN6CC7CCC(C6)N7)cn5)ncc4F)cc3n21` [Example 104, N-(5-((3,8-diazabicyclo[3.2.1]octan-3-yl)methyl)pyridin-2-yl)-5-fluoro-4-((R)-5-fluoro-1-methyl-2,3-dihydro-1H-benzo[d]pyrrolo[1,2-a]imidazol-7-yl)pyrimidin-2-amine] registered an IC50 of 10 to 100 nM.
